This note sets out measurements from paper PMC5434028, “Structure-based prediction and identification of 4-epimerization activity of phosphate sugars in class II aldolases” (Scientific Reports, 2017).

The target of this experiment is T1, RhaD (L-rhamnulose-1-phosphate aldolase) (Escherichia coli, UniProt P32169).
T1 sequence (P32169 1-274): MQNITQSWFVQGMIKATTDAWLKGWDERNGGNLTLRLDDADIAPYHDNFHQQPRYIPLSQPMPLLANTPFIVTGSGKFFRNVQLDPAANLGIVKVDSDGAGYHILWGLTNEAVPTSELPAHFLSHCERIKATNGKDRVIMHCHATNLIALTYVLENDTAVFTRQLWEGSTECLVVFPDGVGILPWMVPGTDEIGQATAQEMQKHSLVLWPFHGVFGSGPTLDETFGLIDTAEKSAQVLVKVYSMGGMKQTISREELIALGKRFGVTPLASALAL
Description: aldol condensation, dephosphorylation, Bio-LC of sorbose and psicose. To be noted: 50 mM Tris-HCl pH 7.0, 50 °C. In kind it is biochemical.

Turning to `O=C[C@H](O)CO` [GA], the “aldol condensation, dephosphorylation, Bio-LC of sorbose and psicose” value (co-substrate DHAP) was “S1P and P1P were condensed from DHAP and GA using RhaD”.

Take `O=C(CO)COP(=O)(O)O` [dihydroxyacetone phosphate]: under “co-substrate GA”, the “aldol condensation, dephosphorylation, Bio-LC of sorbose and psicose” value was “S1P and P1P were condensed from DHAP and GA using RhaD”.
